Test results reported in publication PMC12207533, “Structure-guided design of a methyltransferase-like 3 (METTL3) proteolysis targeting chimera (PROTAC) incorporating an indole–nicotinamide chemotype” (RSC Medicinal Chemistry, 2025).
Where “and” joins values, the source holds several entries; their conditions need not be identical. Equal values may be shown once. Read-outs that look alike come from different tables or passages of the source.

Columns and labels:
human VHL = biological target: T1, human VHL (Homo sapiens, UniProt P40337); assay: HTRF human VHL binding kit; conditions: VHL affinity in presence and absence of METTL3/14 (4 μM)
T1 construct: purchased Revvity
T1 sequence (P40337 whole entry): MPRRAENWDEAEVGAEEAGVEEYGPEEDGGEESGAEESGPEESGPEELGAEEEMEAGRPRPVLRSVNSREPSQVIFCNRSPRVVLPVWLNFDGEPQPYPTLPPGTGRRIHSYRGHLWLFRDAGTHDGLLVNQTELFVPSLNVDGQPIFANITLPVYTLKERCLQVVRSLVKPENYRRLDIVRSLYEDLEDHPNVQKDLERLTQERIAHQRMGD
T1 sequence (Q15370 whole entry partner): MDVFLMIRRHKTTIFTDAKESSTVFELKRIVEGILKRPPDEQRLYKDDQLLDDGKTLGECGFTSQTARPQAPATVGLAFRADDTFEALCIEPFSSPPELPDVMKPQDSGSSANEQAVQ
T1 sequence (Q15369 whole entry partner): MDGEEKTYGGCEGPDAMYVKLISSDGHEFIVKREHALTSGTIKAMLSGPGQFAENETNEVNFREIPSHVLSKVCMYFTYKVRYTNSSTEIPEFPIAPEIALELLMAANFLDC
Procedure: PROTACs binding to VHL or CRBN were measured using a homogeneous time-resolved fluorescence (HTRF) human VHL or CRBN binding kit (Revvity). Samples were prepared according to the manufacturer's protocol, with compounds diluted in the provided diluent while maintaining a constant DMSO concentration with a final concentration of 1.25%. For the ternary KD determinations, METTL3/14 was added at 4 μM, corresponding to approximately a 20- to 40-fold excess of binary KD, while all other component concentrations were kept as specified in the protocol. Measurements were performed in triplicate using a Tecan Spark 10 M plate reader, recording donor and acceptor emissions at λem_donor = 620 nm and λem_acceptor = 665 nm, respectively, following excitation of the HTRF donor at λex = 320 nm. The acceptor-to-donor emission ratio was calculated as ratio = signal 665 nm/signal 620 nm. Using GraphPad Prism 8.0.1, the fluorescence values were normalized, and KD values were calculated as specified above.

[1] = biological target: T2, VCB (VHL, elongin B, elongin C) (Homo sapiens, UniProt P40337); assay: FP displacement assay with VCB (binary and ternary KD, cooperativity); format: binding
T2 construct: VHL (UniProt: P40337, aa 1–213); His6 (N); made in house; host or cells: E. coli BL21 (DE3)
T2 sequence (P40337 whole entry, the tested form may be a part): as the sequence (P40337 whole entry) above
T2 sequence (Q15370 whole entry partner, the tested form may be a part): as the sequence (Q15370 whole entry partner) above
T2 sequence (Q15369 17-112 partner limits assumed): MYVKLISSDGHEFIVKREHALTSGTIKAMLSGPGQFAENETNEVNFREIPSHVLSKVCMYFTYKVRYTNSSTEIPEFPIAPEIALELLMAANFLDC
Procedure: Fluorescence polarization (FP) displacement assays with METTL3/14 (ref. [36]) and VCB[38–40] were performed following previous protocols with slight adaptations. All experiments were conducted in black Greiner 96-well half-area plates using a Tecan Spark 10 M plate reader, equipped with polarization filters coupled to a monochromator setup (λex = 480 nm, λem = 530 nm). Reaction mixtures for METTL3/14 contained 300 nM recombinant enzyme, 20 nM FAM-labelled displacement tracer (STM-FL[36]), and the test compounds at varying concentrations in 25 mM Tris HCl, pH 7.5, 100 mM NaCl, and 10% DMSO. For VCB, the mixtures contained 40 nM recombinant enzyme, 10 nM FAM-labelled probe (FAM-DEALAHyp[…], Tocris Bioscience), and the tested compounds, at varying concentrations, in 50 mM Tris, pH 7.5, 200 mM NaCl, 2 mM DTT, and 10% DMSO. […] All measurements were performed at least as technical triplicates. Polarization values (mP) were determined from polarization-specific parallel and orthogonal fluorescence intensities using the Tecan in-built calculation routine. Using GraphPad Prism 8.0.1, the FP values were normalized, and KD values were calculated using a 4-parameter Hill equation: y(% probe bound) = bottom + ([ligand]slope) × (top–bottom)/([ligand]slope + KD slope).

MOLM-13 cells = assay: Cell viability assay (CellTiter Glo 2.0); format: cell-based, human; conditions: MOLM-13, 72 h, read-out: IC50 (cell viability inhibition)
Procedure: To determine cell viability, MOLM-13 cells were treated with the indicated compounds in a 1 : 1 serial dilution, with pure DMSO (final: 0.1%) as the negative control. Briefly, 1000 cells were seeded in black Greiner half-area 96-well plates and incubated for 72 h with inhibitors from DMSO stocks under standard cultivation conditions. Then, Promega CellTiter Glo 2.0 reagent was added to each well according to the manufacturer's protocols, and luminescence was measured using a Tecan Spark 10 M. Experiments were conducted in technical triplicate. Data was normalized to the DMSO control and analyzed with GraphPad Prism 8.0.1 to determine EC50 values. Synergistic effects of venetoclax and AF151 on cell MOLM-13 viability were conducted accordingly, with dilution series of both compounds analyzed using the SynergyFinder+ webtoolkit.[57]

METTL3 [2] = system: METTL3; design: method as in PMID 38194973; conditions: cited from earlier work
METTL3 [3] = biological target: METTL3; design: method as in PMID 33902106; conditions: cited from earlier work
METTL3 [4] = biological target: T3, METTL3 (Homo sapiens, UniProt Q86U44); assay: Immunoblotting of METTL3 protein levels in MOLM-13 cells; format: cell-based; conditions: MOLM-13, 0.1-10 μM, 16 h
T3 construct: endogenous in cells; host or cells: MOLM-13
T3 sequence (Q86U44 whole entry): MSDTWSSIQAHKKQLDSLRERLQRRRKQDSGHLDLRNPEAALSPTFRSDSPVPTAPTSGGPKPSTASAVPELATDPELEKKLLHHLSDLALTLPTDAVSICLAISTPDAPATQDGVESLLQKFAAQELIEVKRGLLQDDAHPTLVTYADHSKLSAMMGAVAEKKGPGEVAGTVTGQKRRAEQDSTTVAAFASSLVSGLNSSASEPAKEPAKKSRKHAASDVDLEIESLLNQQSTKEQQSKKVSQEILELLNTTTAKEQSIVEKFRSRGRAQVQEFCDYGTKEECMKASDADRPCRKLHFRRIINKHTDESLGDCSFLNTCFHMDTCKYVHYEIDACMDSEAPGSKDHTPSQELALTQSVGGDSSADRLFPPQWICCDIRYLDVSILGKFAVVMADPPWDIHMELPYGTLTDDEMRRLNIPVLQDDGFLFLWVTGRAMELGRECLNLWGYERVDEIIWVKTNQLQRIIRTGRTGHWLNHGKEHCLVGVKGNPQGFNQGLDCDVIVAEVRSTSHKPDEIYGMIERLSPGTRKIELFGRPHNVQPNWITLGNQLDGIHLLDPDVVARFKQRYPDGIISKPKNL
Procedure: MOLM-13 were seeded in 12-well cell culture plates at a density of 1 × 10^6 cells per mL and treated with DMSO (final: 0.1%) or different concentrations of PROTAC degraders in DMSO at the indicated times. Treatments were conducted in biological triplicate with varying passages of MOLM-13 cells. The cells were harvested by centrifugation at 500g for 5 min and washed with PBS. The cells were lysed with RIPA lysis buffer with the addition of protease inhibitor (1× cOMPLETE), and insoluble cellular parts were separated by centrifugation (12 000g for 10 min), subsequently, the supernatant was boiled with 1× Laemmli sample buffer (Carl Roth) for 5 min at 95 °C. Proteins were separated by SDS–PAGE on 4–20% Criterion™ TGX™ Precast Protein Gels (Bio-Rad) and transferred to Amersham™ Protean® 0.45 μm nitrocellulose membrane (Cytiva) using semi-dry transfer (25 V, 1 A, Towbin buffer). The membrane was blocked with 5% milk (Carl Roth) in TBST buffer and incubated with the following primary antibodies: Anti-METTL3 (1 : 1000, Abcam, ab195352), anti-METTL14 (1 : 1000, Abcam, ab220030), anti-Bcl2 (1 : 1000, Cell Signaling Technology [CST], EPR16891), anti-Mcl-1 (1 : 1000, CST, 5453 T), anti-Bcl-XL (1 : 1000, CST, 2764 T), anti-vinculin (1 : 1000, CST, 13901) or anti-GAPDH (1 : 5000, CST, D17C4) overnight at 4 °C. Subsequently, the membrane was incubated for 1 h at RT with secondary antibodies: anti-rabbit (1 : 2000, VWR, NA934) or anti-mouse (1 : 2000, VWR, 102646-160). The protein bands were detected via chemiluminescence using Pierce™ ECL western blotting substrate and a Fusion FX imaging system (Vilber). The ImageLab software (Bio-Rad) was used for band quantification.

METTL3 mRNA = assay: RT-qPCR of METTL3 mRNA expression; format: cell-based, human; conditions: MOLM-13, AF151 2 μM or STM2457 10 μM, 24 h and 48 h
Procedure: (§1) To determine mRNA expression levels of METTL3 and METTL14, MOLM-13 cells were treated in triplicate with compound 41 (AF151, 2 μM), STM2457 (10 μM), and DMSO for 24 resp. 48 h. Afterward, total RNA was extracted using the TRIzol™ reagent (Thermo Fisher Scientific) and purified with the Monarch® Spin RNA Cleanup Kit (New England Biolabs). RT-qPCR was conducted using the two-step GoTaq® RT-qPCR system (Promega) following the manufacturer's protocol. The data were normalized to the DMSO control and GAPDH housekeeping gene (ΔΔCt) using GraphPad Prism 8.0.1.

METTL14 mRNA = assay: RT-qPCR of METTL14 mRNA expression; format: cell-based, human; conditions: MOLM-13, AF151 2 μM or STM2457 10 μM, 24 h and 48 h
Procedure: as §1

cooperativity (HTRF) (human VHL) | Kd ([1]; 40 nM VCB, 10 nM probe, absence of METTL3, read-out: KD E3-ligases (VHL, FP), binary) [nM] | Kd ([1]; absence of METTL3, read-out: KD binary (VHL)) [nM] | Kd ([1]; presence of METTL3/14 (12 μM), read-out: KD ternary (VHL)) | IC50 (MOLM-13 cells; Homo sapiens) [nM] | Compound | Dmax (METTL3 degradation) (METTL3 [2]) [%] | DC50 (METTL3 [2]; read-out: DC50 (METTL3 degradation)) [nM] | Kd (METTL3 [3]) [nM] | IC50 (MOLM-13 cells) [nM] | METTL3 degradation (Western blot screening) (METTL3 [4]) | METTL3 mRNA level (ΔΔCt) (METTL3 mRNA) | METTL14 mRNA level (ΔΔCt) (METTL14 mRNA)
positive cooperativity | 1700 | 1760 ± 264 | 77.4 nM and 79 nM | 780 | Cc1ncsc1-c1ccc([C@H](C)NC(=O)[C@@H]2C[C@@H](O)CN2C(=O)[C@@H](NC(=O)CCC#Cc2ccc(CNc3cc(N4CCC5(CC4)CN(c4cc(F)c(CN6CCC(C)(C)CC6)cc4F)CC(=O)N5)ncn3)cc2)C(C)(C)C)cc1 [WD6305] | ~91 | 140 | – | – | – | – | –
– | – | – | – | – | STM2457 [reference compound] | – | – | 1.4 | 1820 | do not func?on as METTL3 degraders | no significant changes | no significant changes
– | – | – | – | – | CC1(C)CCN(Cc2ccc3nc(Cn4cc(-c5cc(Br)cc6[nH]ncc56)nn4)cn3c2)CC1 [STM3006, reference compound] | – | – | – | – | do not func?on as METTL3 degraders | – | –
